In patent publication US20260265244A1, “HETEROCYCLIC COMPOUNDS AS STING ANTAGONISTS” (Boehringer Ingelheim International GmbH, priority 2022, published 2026):

Tested on: STING inhibition in human whole blood (IFNα2α production)
Experiment: Human whole blood assay (HWBA): cGAMP-stimulated IFNα2α production
Format: cell-based
Details: not given
Outline: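 Na-citrate human whole blood from ≥3 healthy donors, preincubated 60 min at room temperature with compound (8 concentrations, top 10 μM, ~1:5 steps, 0.1% DMSO), then stimulated with cGAMP and incubated 22 h at 37 °C. Plasma IFNα2α measured by MSD immunoassay; % control versus stimulated/unstimulated wells, IC50 by 4-parameter logistic fit.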

Row | Compound | IC50 [nM]
1 | COC(C)c1nc2nn(C)cc2cc1-n1nc(-c2cccc3nn(C[C@H](O)c4ccccc4)cc23)c(C(C)C)c1C (stereo partly shown) [Example 75] | 450

Same assay, conditions: Homo sapiens

Row | IC50 [nM] | Compound
2 | 58 | [2H][C@](O)(Cn1cc2c(-c3nn(-c4cc5cn(C)nc5nc4C)c(C)c3C(C)C)cccc2n1)c1ccccc1 [Example 3, (1R)-2-[4-(1-{2,6-dimethyl-2H-pyrazolo[3,4-b]pyridin-5-yl}-5-methyl-4-(propan-2-yl)-1H-pyrazol-3-yl)-2H-indazol-2-yl]-1-phenyl(1-^2H)ethan-1-ol]
3 | 450 | Cc1nc2nn(C)cc2cc1-n1nc(-c2cccc3nn(C[C@H](OCCC(C)(C)O)c4ccccc4)cc23)c(C(C)C)c1C [Example 74, 4-[(1R)-2-[4-(1-{2,6-dimethyl-2H-pyrazolo[3,4-b]pyridin-5-yl}-5-methyl-4-(propan-2-yl)-1H-pyrazol-3-yl)-2H-indazol-2-yl]-1-phenylethoxy]-2-methylbutan-2-ol]
4 | 560 | Cc1nc2nn(C)cc2cc1-n1nc(-c2cccc3nn(C[C@H](OCCF)c4ccccc4)cc23)c(C(C)C)c1C [Example 78, 4-(1-{2,6-dimethyl-2H-pyrazolo[3,4-b]pyridin-5-yl}-5-methyl-4-(propan-2-yl)-1H-pyrazol-3-yl)-2-[(2R)-2-(2-fluoroethoxy)-2-phenylethyl]-2H-indazole]
5 | 580 | C=CCO[C@@H](Cn1cc2c(-c3nn(-c4cc5cn(C)nc5nc4C)c(C)c3C(C)C)cccc2n1)c1ccccc1 [Example 79, 4-(1-{2,6-dimethyl-2H-pyrazolo[3,4-b]pyridin-5-yl}-5-methyl-4-(propan-2-yl)-1H-pyrazol-3-yl)-2-[(2R)-2-phenyl-2-(prop-2-en-1-yloxy)ethyl]-2H-indazole]
6 | 610 | CCCO[C@@H](Cn1cc2c(-c3nn(-c4cc5cn(C)nc5nc4C)c(C)c3C(C)C)cccc2n1)c1ccccc1 [Example 81, 4-(1-{2,6-dimethyl-2H-pyrazolo[3,4-b]pyridin-5-yl}-5-methyl-4-(propan-2-yl)-1H-pyrazol-3-yl)-2-[(2R)-2-phenyl-2-propoxyethyl]-2H-indazole]
7 | 660 | COCCO[C@@H](Cn1cc2c(-c3nn(-c4cc5cn(C)nc5nc4C)c(C)c3C(C)C)cccc2n1)c1ccccc1 [Example 85, 4-(1-{2,6-dimethyl-2H-pyrazolo[3,4-b]pyridin-5-yl}-5-methyl-4-(propan-2-yl)-1H-pyrazol-3-yl)-2-[(2R)-2-(2-methoxyethoxy)-2-phenylethyl]-2H-indazole]
8 | 2500 | Cc1nc2nn(C)cc2cc1-n1nc(-c2cccc3nn(C[C@H](O)c4ccccc4)cc23)c(C(C)CO)c1C (stereo partly drawn) [Example 95, 2-(1-{2,6-dimethyl-2H-pyrazolo[3,4-b]pyridin-5-yl}-3-{2-[(2R)-2-hydroxy-2-phenylethyl]-2H-indazol-4-yl}-5-methyl-1H-pyrazol-4-yl)propan-1-ol]

More lines, now with the values behind:

Row | Compound | IC50 [nM]
9 | Cc1c(C(C)C)c(-c2cccc3nn(C[C@H](O)c4ccccc4)cc23)nn1-c1ccn2c(C(F)F)nnc2c1C1CC1 [Example 76] | 520
10 | Cc1c(C(C)C)c(-c2cccc3nn(C[C@H](O)c4ccccc4)cc23)nn1-c1cc2cn(C)nc2nc1C1(C)CC1 [Example 80, (1R)-2-(4-{5-methyl-1-[2-methyl-6-(1-methylcyclopropyl)-2H-pyrazolo[3,4-b]pyridin-5-yl]-4-(propan-2-yl)-1H-pyrazol-3-yl}-2H-indazol-2-yl)-1-phenylethan-1-ol] | 580
11 | Cc1cc([C@@H](O)Cn2cc3c(-c4nn(-c5cc6cn(C)nc6nc5C)c(C)c4C(C)C)cccc3n2)ccn1 [Example 82, (1R)-2-[4-(1-{2,6-dimethyl-2H-pyrazolo[3,4-b]pyridin-5-yl}-5-methyl-4-(propan-2-yl)-1H-pyrazol-3-yl)-2H-indazol-2-yl]-1-(2-methylpyridin-4-yl)ethan-1-ol] | 610
12 | Cc1nc2nn(C)cc2cc1-n1nc(-c2cccc3nn(CC(O)C4CCCCC4)cc23)c(C(C)C)c1C (stereo not shown) [Example 83, 1-cyclohexyl-2-[4-(1-{2,6-dimethyl-2H-pyrazolo[3,4-b]pyridin-5-yl}-5-methyl-4-(propan-2-yl)-1H-pyrazol-3-yl)-2H-indazol-2-yl]ethan-1-ol] | 630
13 | CNc1nc2nn(C)cc2cc1-n1nc(-c2cccc3nn(C[C@H](O)c4ccccc4)cc23)c(C(C)C)c1C [Example 84, (1R)-2-(4-{5-methyl-1-[2-methyl-6-(methylamino)-2H-pyrazolo[3,4-b]pyridin-5-yl]-4-(propan-2-yl)-1H-pyrazol-3-yl}-2H-indazol-2-yl)-1-phenylethan-1-ol] | 640
14 | Cc1c(-n2nc(-c3cccc4nn(C[C@H](O)c5ccccc5)cc34)c(C(C)C)c2C)ccn2c(C)nnc12 [Example 86, (1R)-2-[4-(1-{3,8-dimethyl-[1,2,4]triazolo[4,3-a]pyridin-7-yl}-5-methyl-4-(propan-2-yl)-1H-pyrazol-3-yl)-2H-indazol-2-yl]-1-phenylethan-1-ol] | 690
15 | Cc1c(C(C)C)c(-c2cccc3nn(C[C@H](O)c4ccccc4)cc23)nn1-c1cc2cn(C)nc2nc1N(C)C [Example 87, (1R)-2-(4-{1-[6-(dimethylamino)-2-methyl-2H-pyrazolo[3,4-b]pyridin-5-yl]-5-methyl-4-(propan-2-yl)-1H-pyrazol-3-yl}-2H-indazol-2-yl)-1-phenylethan-1-ol] | 850
16 | Cc1nc2nn(C)cc2cc1-n1nc(-c2cccc3nn(CC(O)c4ccc(Br)cc4)cc23)c(C(C)C)c1C (stereo not shown) [Example 88, 1-(4-Bromophenyl)-2-[4-(1-{2,6-dimethyl-2H-pyrazolo[3,4-b]pyridin-5-yl}-5-methyl-4-(propan-2-yl)-1H-pyrazol-3-yl)-2H-indazol-2-yl]ethan-1-ol] | 930
17 | Cc1c(C(C)C)c(-c2cccc3nn(C[C@H](O)c4ccccc4)cc23)nn1-c1cc2cn(C)nc2nc1C(C)(C)O [Example 89, 2-[5-(3-{2-[(2R)-2-hydroxy-2-phenylethyl]-2H-indazol-4-yl}-5-methyl-4-(propan-2-yl)-1H-pyrazol-1-yl)-2-methyl-2H-pyrazolo[3,4-b]pyridin-6-yl]propan-2-ol] | 1000
18 | Cn1cc2cc(-c3nc(-c4cccc5nn(C[C@H](O)c6ccc(OCC#N)cc6)cc45)c(C4CC4)n3C)c(C3CC3)nc2n1 [Example 90, 2-{4-[(1R)-2-[4-(5-cyclopropyl-2-{6-cyclopropyl-2-methyl-2H-pyrazolo[3,4-b]pyridin-5-yl}-1-methyl-1H-imidazol-4-yl)-2H-indazol-2-yl]-1-hydroxyethyl]phenoxy} acetonitrile] | 1100
19 | Cn1cc([C@@H](O)Cn2cc3c(-c4nc(-c5cc6cn(C)nc6nc5C5CC5)n(C)c4C4CC4)cccc3n2)cn1 [Example 91, (1R)-2-[4-(5-cyclopropyl-2-{6-cyclopropyl-2-methyl-2H-pyrazolo[3,4-b]pyridin-5-yl}-1-methyl-1H-imidazol-4-yl)-2H-indazol-2-yl]-1-(1-methyl-1H-pyrazol-4-yl)ethan-1-ol] | 1600
20 | Cc1nc2nn(C)cc2cc1-n1nc(-c2cccc3nn(C[C@H](O)c4ccccc4)cc23)c(C2(C)CC2)c1C [Example 92, (1R)-2-[4-(1-{2,6-Dimethyl-2H-pyrazolo[3,4-b]pyridin-5-yl}-5-methyl-4-(1-methylcyclopropyl)-1H-pyrazol-3-yl)-2H-indazol-2-yl]-1-phenylethan-1-ol] | 2000
21 | CCc1c(-c2cccc3nn(C[C@H](O)c4ccccc4)cc23)nn(-c2cc3cn(C)nc3nc2C)c1CC [Example 93, (1R)-2-[4-(1-{2,6-dimethyl-2H-pyrazolo[3,4-b]pyridin-5-yl}-4,5-diethyl-1H-pyrazol-3-yl)-2H-indazol-2-yl]-1-phenylethan-1-ol] | 2400
22 | Cc1c(-n2nc(-c3cccc4nn(C[C@H](O)c5ccccc5)cc34)c(C(C)C)c2C)ccn2c(C)cnc12 [Example 94, (1R)-2-[4-(1-{3,8-dimethylimidazo[1,2-a]pyridin-7-yl}-5-methyl-4-(propan-2-yl)-1H-pyrazol-3-yl)-2H-indazol-2-yl]-1-phenylethan-1-ol] | 2400
